Data published in patent US5525627A, “Esters of acyl carnitines with long-chain aliphatic alcohols and pharmaceutical compositions containing same having antimycotic activity” (Sigma-Tau Industrie Farmaceutiche Riunite S.p.A., priority 1992, dated 1996).

What was measured:
Candida albicans (562) = experiment: MIC for yeast and yeast-like strains; type: cell-based; conditions: 48 hours, 35° C., read-out: Minimal Inhibitory Concentration (MIC)
Protocol: (§1) The following strains were used (the number of strains is in brackets): Candida (13); Criptococcus (2); Saccharormyces (1); Torulopsis (1).
(§2) Yeast Nitrogen Base supplemented with 0.15% asparagine and 1.0% glucose (as carbon source) was the medium utilized in the assays.
(§3) This medium was buffered with 0.165 M 2-(N-morpholino) propane sulfonic acid (MOPS), a non-chelating buffer. […]
(§4) The inoculum was prepared from an overnight broth culture (a 48-hour culture only for Cryptococcus) in Sabouraud broth and appropriately diluted to yield a final suspension containing approximately 5.0×10^6 Colony Forming Units per ml (CFU/ml), when compared to the Mc Farland's standard control (BRAY W. E., Clinical Laboratory Methods, 5th Ed. C. V. MOSBY, St. Louis, Mo, 1957).
(§5) After further diluting (1:50), a […] volume of such fungal suspensions and an equal volume of the substance solutions were distributed into each well of a microtiter plate (96 wells, round bottom). Such a procedure eventually allowed for an "in vitro" antimycotic activity assay utilizing final fungal inocula of approximately 5.0×10^4 CFU/ml.

Candida albicans (A 54) = experiment: MIC for yeast and yeast-like strains; type: cell-based; conditions: 48 hours, 35° C., read-out: Minimal Inhibitory Concentration (MIC)
Protocol: as §1, §2, §3, §4, §5

Candida albicans (Ca 2) = experiment: MIC for yeast and yeast-like strains; type: cell-based; conditions: 48 hours, 35° C., read-out: Minimal Inhibitory Concentration (MIC)
Protocol: as §1, §2, §3, §4, §5

Candida krusei (ISS 1) = experiment: MIC for yeast and yeast-like strains; type: cell-based; conditions: Pichia kudriavzevii; 48 hours, 35° C.; read-out: Minimal Inhibitory Concentration (MIC)
Protocol: as §1, §2, §3, §4, §5

[1] = system: Candida tropicalis (5705); experiment: MIC for yeast and yeast-like strains; type: cell-based; conditions: 48 hours, 35° C., read-out: Minimal Inhibitory Concentration (MIC)
Protocol: as §1, §2, §3, §4, §5

[2] = system: Cryptococcus neoformans (4711); experiment: MIC for yeast and yeast-like strains; type: cell-based; conditions: 48 hours, 35° C., read-out: Minimal Inhibitory Concentration (MIC)
Protocol: as §1, §2, §3, §4, §5

[3] = system: Saccharomyces cerevisiae (ATCC 7752); experiment: MIC for yeast and yeast-like strains; type: cell-based; conditions: ATCC7752, 48 hours, 35° C., read-out: Minimal Inhibitory Concentration (MIC)
Protocol: as §1, §2, §3, §4, §5

[4] = system: Torulopsis candida (D.S.); experiment: MIC for yeast and yeast-like strains; type: cell-based; conditions: Suzukiozyma candida; 48 hours, 35° C.; read-out: Minimal Inhibitory Concentration (MIC)
Protocol: as §1, §2, §3, §4, §5

Candida albicans (PG) = experiment: MIC and MFC for yeast and yeast-like strains; type: cell-based; conditions: 48 hours, 35° C., read-out: Minimal Inhibitory Concentration (MIC)
Protocol: as §1, §2
(§6) This medium was buffered with 0.165 M 2-(N-morpholino) propane sulfonic acid (MOPS), a non-chelating buffer.
(§7) Antimicrob. Agents Cheroother. Aug. 34.8:1542-1545).
as §4, §5
(§8) The minimal fungicidal concentration was evaluated by spot-transferring onto Petri dishes, containing Sabouraud agar, 0.01-ml volumes of all the samples showing no visible fungal growth.

[5] = system: Candida albicans (ATCC 2091); experiment: MIC for yeast and yeast-like strains; type: cell-based; conditions: ATCC2091, 48 hours, 35° C., read-out: Minimal Inhibitory Concentration (MIC)
Protocol: as §1, §2, §6, §7, §4, §5

Candida albicans (ISS 1) = experiment: MIC for yeast and yeast-like strains; type: cell-based; conditions: 48 hours, 35° C., read-out: Minimal Inhibitory Concentration (MIC)
Protocol: as §1, §2, §6, §7, §4, §5

Candida glabrata (ISS 1) = experiment: MIC for yeast and yeast-like strains; type: cell-based; conditions: Nakaseomyces glabratus; 48 hours, 35° C.; read-out: Minimal Inhibitory Concentration (MIC)
Protocol: as §1, §2, §6, §7, §4, §5

[6] = system: Candida guilliermondii (ISS 1); experiment: MIC for yeast and yeast-like strains; type: cell-based; conditions: Meyerozyma guilliermondii; 48 hours, 35° C.; read-out: Minimal Inhibitory Concentration (MIC)
Protocol: as §1, §2, §6, §7, §4, §5

[7] = system: Candida parapsilosis (ISS 1); experiment: MIC for yeast and yeast-like strains; type: cell-based; conditions: Lodderomyces parapsilosis; 48 hours, 35° C.; read-out: Minimal Inhibitory Concentration (MIC)
Protocol: as §1, §2, §6, §7, §4, §5

[8] = system: Candida pseudotropicalis (EC 1); experiment: MIC for yeast and yeast-like strains; type: cell-based; conditions: Kluyveromyces marxianus; 48 hours, 35° C.; read-out: Minimal Inhibitory Concentration (MIC)
Protocol: as §1, §2, §6, §7, §4, §5

[9] = system: Candida tropicalis (ISS 1); experiment: MIC for yeast and yeast-like strains; type: cell-based; conditions: 48 hours, 35° C., read-out: Minimal Inhibitory Concentration (MIC)
Protocol: as §1, §2, §6, §7, §4, §5

[10] = system: Cryptococcus neoformans (ISS 1); experiment: MIC for yeast and yeast-like strains; type: cell-based; conditions: 48 hours, 35° C., read-out: Minimal Inhibitory Concentration (MIC)
Protocol: as §1, §2, §6, §7, §4, §5

yeast-like fungi = experiment: MIC / MFC for yeast-like fungi, all strains; type: cell-based, Candida, Cryptococcus, Saccharomyces, Torulopsis; conditions: versus susceptible strains; read-out: Mean MIC values
Protocol: as §1, §2, §3, §4, §5, §8

[11] = system: Aspergillus fumigatus (1/A); experiment: MIC for filamentous fungi; type: cell-based; conditions: read-out: Minimal Inhibitory Concentration (MIC)
From the text: (§9) The following strains were used (the number of strains is in brackets): Aspergillus (5); Fusarium (1); Mucor (1); Penicillium (1).
(§10) The tested substances were: ST 712, ST 722, ST 982, ST 983, ST 1000, ST 1001, ST 1032, ST 1033, ST 1034, ST 1036, ST 1037, ST 1038, ST 1050, ST 1051, ST 1052, ST 1053. The assay medium was the same as the one used in the previous study. The conidia from 72-hour cultures in Sabouraud agar, collected by washing with Sabouraud medium and Tween 80 (one drop of Tween per 10 ml of medium), were utilized as inoculum (5.0×10^4 CFU/ml).
(§11) The assay was performed using the same procedure as described for yeast-like fungi.
(§12) Also the evaluation of MIC and MFC was as reported previously.

[12] = system: Aspergillus fumigatus (2/A); experiment: MIC for filamentous fungi; type: cell-based; conditions: read-out: Minimal Inhibitory Concentration (MIC)
From the text: as §9, §10, §11, §12

[13] = system: Aspergillus fumigatus (ATCC 28212); experiment: MIC for filamentous fungi; type: cell-based; conditions: ATCC28212, read-out: Minimal Inhibitory Concentration (MIC)
From the text: as §9, §10, §11, §12

[14] = system: Aspergillus fumigatus (C/1); experiment: MIC for filamentous fungi; type: cell-based; conditions: read-out: Minimal Inhibitory Concentration (MIC)
From the text: as §9, §10, §11, §12

[15] = system: Aspergillus niger (ATCC 16404); experiment: MIC for filamentous fungi; type: cell-based; conditions: ATCC16404, read-out: Minimal Inhibitory Concentration (MIC)
From the text: as §9, §10, §11, §12

Fusarium sp. (ISS 1) = experiment: MIC for filamentous fungi; type: cell-based; conditions: read-out: Minimal Inhibitory Concentration (MIC)
From the text: as §9, §10, §11, §12

Mucor mucedo (ATCC 7941) = experiment: MIC for filamentous fungi; type: cell-based; conditions: ATCC7941, read-out: Minimal Inhibitory Concentration (MIC)
From the text: as §9, §10, §11, §12

Penicillium sp. (1302) = experiment: MIC for filamentous fungi; type: cell-based; conditions: read-out: Minimal Inhibitory Concentration (MIC)
From the text: as §9, §10, §11, §12

filamentous fungi = experiment: MIC / MFC for filamentous fungi, all strains; type: cell-based, Aspergillus, Fusarium, Mucor, Penicillium; conditions: versus susceptible strains; read-out: Mean MIC values
From the text: as §9, §10, §11, §12

Q: How did the MIC (Candida albicans (562)) turn out when `CCCCCCCCCCCCCCCCOC(=O)C[C@H](C[N+](C)(C)C)OC(=O)CC(C)C` [ST 1001] was run?
A: 3.12 µg/mL

Q: What about the MIC (Candida albicans (A 54)) of the same compound?
A: 3.12 µg/mL

Q: What about the MIC (Candida albicans (Ca 2)) of the same compound?
A: 3.12 µg/mL

Q: And the MIC (Candida krusei (ISS 1))?
A: 6.25 µg/mL

Q: What about the MIC [1] of the same compound?
A: 6.25 µg/mL

Q: And the MIC [2]?
A: 1.56 µg/mL

Q: What about the MIC [3] of the same compound?
A: 6.25 µg/mL

Q: And the MIC [4]?
A: 6.25 µg/mL

Q: What about the MIC (Candida albicans (PG)) of the same compound?
A: 6.25 µg/mL

Q: What about the MIC [5] of the same compound?
A: 6.25 µg/mL

Q: And the MIC (Candida albicans (ISS 1))?
A: 12.5 µg/mL

Q: What about the MIC (Candida glabrata (ISS 1)) of the same compound?
A: 6.25 µg/mL

Q: What about the MIC [6] of the same compound?
A: 6.25 µg/mL

Q: What about the MIC [7] of the same compound?
A: 6.25 µg/mL

Q: What about the MIC [8] of the same compound?
A: 12.5 µg/mL

Q: And the MIC [9]?
A: 12.5 µg/mL

Q: And the MIC [10]?
A: 3.12 µg/mL

Q: And the MIC (yeast-like fungi)?
A: 6.24 µg/mL

Q: What about the MIC [11] of the same compound?
A: 6.25 µg/mL

Q: And the MIC [12]?
A: 6.25 µg/mL

Q: And the MIC [13]?
A: 6.25 µg/mL

Q: What about the MIC [14] of the same compound?
A: 6.25 µg/mL

Q: And the MIC [15]?
A: 12.5 µg/mL

Q: And the MIC (Fusarium sp. (ISS 1))?
A: 12.5 µg/mL

Q: And the MIC (Mucor mucedo (ATCC 7941))?
A: > 100 µg/mL

Q: What about the MIC (Penicillium sp. (1302)) of the same compound?
A: 6.25 µg/mL

Q: What about the MIC (filamentous fungi) of the same compound?
A: 7.03 µg/mL
